Assay results as given in patent EP4603105A1, “PHARMACEUTICAL COMPOSITION CONTAINING CYCLIC COMPOUND HAVING SELECTIVE KRAS INHIBITORY EFFECT AGAINST HRAS AND NRAS” (CHUGAI SEIYAKU KABUSHIKI KAISHA, priority 2022, dated 2024).
Where a SMILES comes first, the peptide text is derived from it. Bridges are numbered along the chain shown (N, C = ends). [ ]: non-standard residue; d: D form. The star is where a group is joined. hPhe(3-Cl-4-CF3) = N[C@@H](CCc1ccc(C(F)(F)F)c(Cl)c1)C(=O)O; NPrPhe(4-CF3) = CCCN[C@@H](Cc1ccc(C(F)(F)F)cc1)C(=O)O; NPrPhe(4-Me) = CCCN[C@@H](Cc1ccc(C)cc1)C(=O)O; 3Oxa8azabicyclo(3.2.1)octane = C1CC2COCC1N2*; Morpholine(3S-CO) = O=C(O)[C@@H]1COCCN1; NMeGly(cPent) = CN[C@H](C(=O)O)C1CCCC1; Aze(3S-Me) = C[C@H]1CN[C@@H]1C(=O)O; Hyp = O=C(O)[C@@H]1C[C@@H](O)CN1; NMeD = CN[C@@H](CC(=O)O)C(=O)O; NMeL = CN[C@@H](CC(C)C)C(=O)O; Morpholide = C1CN(*)CCO1; NMeA = CN[C@@H](C)C(=O)O; Ac5c = NC1(C(=O)O)CCCC1; Aze = O=C(O)[C@@H]1CCN1; Ac4c = NC1(C(=O)O)CCC1; NEtG = CCNCC(=O)O; Sar = CNCC(=O)O

Assays:
[1] = molecular target: GDP-bound NRAS wild-type protein (Homo sapiens, UniProt P01111); test: Binding to NRAS by surface plasmon resonance (SPR), KD and KD ratio to KRAS
GDP-bound NRAS wild-type protein, sequence (P01111 whole entry): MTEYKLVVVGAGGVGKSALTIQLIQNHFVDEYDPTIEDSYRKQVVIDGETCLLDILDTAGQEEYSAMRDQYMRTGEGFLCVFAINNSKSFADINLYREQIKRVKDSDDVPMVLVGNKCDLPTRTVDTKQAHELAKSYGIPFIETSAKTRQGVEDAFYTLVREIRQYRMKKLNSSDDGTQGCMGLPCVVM
Summary of the method: (§1)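 Running buffer contained 10 µM GDP and 10 mM MgCl2 to keep RAS in the GDP state, with 4% DMSO at pH 7.4. Compounds were flowed at 100 µL/min in 75 s steps of rising concentration over captured biotin-Avi RAS at 30°C. Sensorgrams were fitted 1:1 for KD.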

HRAS wild-type protein = HRAS wild-type protein (Homo sapiens, UniProt P01112); test: Binding to HRAS by surface plasmon resonance (SPR), KD and KD ratio to KRAS
HRAS wild-type protein, sequence (P01112 whole entry): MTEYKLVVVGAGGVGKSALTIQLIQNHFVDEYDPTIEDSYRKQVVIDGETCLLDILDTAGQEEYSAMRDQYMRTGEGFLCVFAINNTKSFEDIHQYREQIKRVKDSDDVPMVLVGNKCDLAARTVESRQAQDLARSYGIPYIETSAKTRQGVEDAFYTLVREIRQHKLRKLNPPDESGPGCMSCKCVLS
Summary of the method: as §1

[2] = system: human lung cancer strain NCI-H441; assay type: cell-based
Summary of the method: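 Step one: dispense the test compound in serial DMSO dilutions. Step three: add the reagent and measure […].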

[3] = ratio of KD for GDP-bound NRAS wild-type protein to KD for KRAS
[4] = ratio of KD for HRAS wild-type protein to KD for KRAS
[5] = ratio of the KD value with respect to GDP-bound NRAS wild-type protein to the KD value with respect to KRAS
[6] = ratio of the KD value with respect to HRAS wild-type protein to the KD value with respect to KRAS
[7] = ratio of KD value for GDP-bound NRAS wild-type protein to KD value for KRAS (SPR)
[8] = ratio of KD value for HRAS wild-type protein to KD value for KRAS (SPR)

IC50 [2] [nM]	Structure (SMILES)	NRAS /KRAS [1, 3]	HRAS /KRAS (HRAS wild-type protein; [4])	NRAS /KRAS [1, 5]	HRAS /KRAS (HRAS wild-type protein; [6])	NRAS /KRAS [1, 7]	HRAS /KRAS (HRAS wild-type protein; [8])
34.6	CC[C@H](C)[C@@H]1NC(=O)[C@H](CC(C)C)N(C)C(=O)C[C@@H](C(=O)N2CCOCC2)N(C)C(=O)[C@H](C2CCCC2)N(C)C(=O)C2(CCCC2)NC(=O)[C@@H]2CC(F)(F)CN2C(=O)[C@H](CCc2ccc(C(F)(F)F)c(Cl)c2)NC(=O)CN(C)C(=O)[C@H](Cc2ccc(F)cc2)N2CCCCC[C@@H](C2=O)N(C)C(=O)CN(C)C1=O [PP0966]	B (a compound having 3 or more and less than 10 is denoted as B)	B (a compound having 3 or more and less than 10 is denoted as B)				
37.2	CCO[C@@H]1C[C@H]2C(=O)NC3(CCCC3)C(=O)N(C)[C@@H](C3CCCC3)C(=O)N(C)[C@H](C(=O)N(C)C)CC(=O)N(C)[C@@H](CC(C)C)C(=O)N[C@@H]([C@@H](C)CC)C(=O)N(C)CC(=O)N(C)[C@H]3CCCCCN(C3=O)[C@@H](Cc3ccc(C(F)(F)F)cc3)C(=O)N(C)CC(=O)N[C@@H](CCc3cc(F)c(C(F)(F)F)c(F)c3)C(=O)N2C1 [PP0468]			B (a compound having 3 or more and less than 10 is denoted as B)	B (a compound having 3 or more and less than 10 is denoted as B)		
73.2	CCCN1C(=O)CN(C)C(=O)CN(CC)C(=O)[C@H]([C@@H](C)CC)NC(=O)[C@H](CC(C)C)N(C)C(=O)C[C@@H](C(=O)N2CCOCC2)NC(=O)[C@H](C2CCCC2)N(C)C(=O)C2(CCC2)NC(=O)[C@@H]2C[C@@H](OCC)CN2C(=O)[C@H](CCc2ccc(C(F)(F)F)c(Cl)c2)NC(=O)CN(C)C(=O)[C@@H]1Cc1ccc(C(F)(F)F)cc1 [PP0336] ([NMeL]I[NEtG][Sar][NPrPhe(4-CF3)][Sar][hPhe(3-Cl-4-CF3)][Hyp](Et)[Ac4c][NMeGly(cPent)]D-Morpholide; lactam N-11)	B (a compound having 3 or more and less than 10 is denoted as B)	B (a compound having 3 or more and less than 10 is denoted as B)				
35	CCCN1C(=O)[C@@H]2CCN2C(=O)[C@H](C)N(C)C(=O)[C@H]([C@@H](C)CC)NC(=O)[C@H](CC(C)C)N(C)C(=O)C[C@@H](C(=O)N2CCOCC2)N(C)C(=O)[C@H](C2CCCC2)N(C)C(=O)C2(CCCC2)NC(=O)[C@@H]2COCCN2C(=O)[C@H](CCc2ccc(C(F)(F)F)c(Cl)c2)NC(=O)CN(C)C(=O)[C@@H]1Cc1ccc(C(F)(F)F)cc1 [PP0286] ([NMeL]I[NMeA][Aze][NPrPhe(4-CF3)][Sar][hPhe(3-Cl-4-CF3)][Morpholine(3S-CO)][Ac5c][NMeGly(cPent)][NMeD]-Morpholide; lactam N-11)	C (A compound having a KD ratio of 0.1 or more and less than 3 is denoted as C)	B (a compound having 3 or more and less than 10 is denoted as B)				
4.1	CCO[C@@H]1C[C@H]2C(=O)NC3(CC(C)(C)C3)C(=O)N(C)[C@@H](C3CCCC3)C(=O)N(C)[C@H](C(=O)N(C)CC)CC(=O)N(C)[C@@H](CC)C(=O)N[C@@H]([C@@H](C)CC)C(=O)N(C)CC(=O)N(C)[C@H]3C/C=C\CCN(C3=O)[C@@H](Cc3ccc(C(F)(F)F)cc3)C(=O)N(C)CC(=O)N[C@@H](CCc3cc(F)c(C(F)(F)F)c(F)c3)C(=O)N2C1 [PP1579]					A (a compound having 10 or more and less than 20 is denoted as A)	B (a compound having 3 or more and less than 10 is denoted as B)
8.4	CC[C@H](C)[C@@H]1NC(=O)[C@H](CC(C)C)N(C)C(=O)C[C@@H](C(=O)N2CCOCC2)N(C)C(=O)[C@H](C2CCCC2)N(C)C(=O)C2(CCC2)NC(=O)[C@@H]2C[C@@H](C(F)(F)F)CN2C(=O)[C@H](CCc2cc(F)c(C(F)(F)F)c(F)c2)NC(=O)CN(C)C(=O)[C@H](Cc2ccc(C(F)(F)F)cc2)N2CCCC[C@@H](C2=O)N(C)C(=O)CN(C)C1=O [PP0809]	B (a compound having 3 or more and less than 10 is denoted as B)	B (a compound having 3 or more and less than 10 is denoted as B)				
2.8	CC[C@H](C)[C@@H]1NC(=O)[C@H](CC(C)C)N(C)C(=O)C[C@@H](C(=O)N2CCOCC2)N(C)C(=O)[C@H](C2CCCC2)N(C)C(=O)C2(CCCC2)NC(=O)[C@@H]2CCCN2C(=O)[C@H](CCc2ccc(C(F)(F)F)c(Cl)c2)NC(=O)CN(C)C(=O)[C@H](Cc2ccc(C)cc2)N2CCCC[C@@H](C2=O)N(C)C(=O)CN(C)C1=O [PP0316]	C (A compound having a KD ratio of 0.1 or more and less than 3 is denoted as C)	B (a compound having 3 or more and less than 10 is denoted as B)				
4.5	CCCN(C)C(=O)[C@@H]1CC(=O)N(C)[C@@H](CC(F)F)C(=O)N[C@@H]([C@@H](C)CC)C(=O)N(C)CC(=O)N(C)[C@H]2C/C=C\CCN(C2=O)[C@@H](Cc2ccc(C(F)(F)F)cc2)C(=O)N(C)CC(=O)N[C@@H](CCc2cc(F)c(C(F)(F)F)c(F)c2)C(=O)N2C[C@H](OCC)C[C@H]2C(=O)NC2(CC(C)(C)C2)C(=O)N(C)[C@@H](C2CCCC2)C(=O)N1C [PP2030]			A (a compound having 10 or more and less than 20 is denoted as A)	A (a compound having 10 or more and less than 20 is denoted as A)		
66.1	CCO[C@@H]1C[C@H]2C(=O)NC3(CCC3)C(=O)N(C)[C@@H](C3CCCC3)C(=O)N(C)[C@H](C(=O)N(C)C)CC(=O)N(C)[C@@H](Cc3cccc(C)c3)C(=O)N[C@@H]([C@@H](C)CC)C(=O)N(C)CC(=O)N(C)[C@H]3CCCCCN(C3=O)[C@@H](Cc3ccc(C(F)(F)F)cc3)C(=O)N(C)CC(=O)N[C@@H](CCc3cc(F)c(C(F)(F)F)c(F)c3)C(=O)N2C1 [PP0942]	B (a compound having 3 or more and less than 10 is denoted as B)	B (a compound having 3 or more and less than 10 is denoted as B)				
13.7	CCO[C@@H]1C[C@H]2C(=O)NC3(CC(C)(C)C3)C(=O)N(C)[C@@H](C(CC)CC)C(=O)N(C)[C@H](C(=O)N(C)C)CC(=O)N(C)[C@@H](CC)C(=O)N[C@@H]([C@@H](C)CC)C(=O)N(C)CC(=O)N(C)[C@H]3C/C=C\CCN(C3=O)[C@@H](Cc3ccc(C(F)(F)F)cc3)C(=O)N(C)CC(=O)N[C@@H](CCc3cc(F)c(C(F)(F)F)c(F)c3)C(=O)N2C1 [PP2062]			AA (a compound having 20 or more is denoted as AA)	A (a compound having 10 or more and less than 20 is denoted as A)		
26.7	CCO[C@@H]1C[C@H]2C(=O)NC3(CCC3)C(=O)N(C)[C@@H](C3CCCC3)C(=O)N(C)[C@H](C(=O)N(C)C)CC(=O)N(C)[C@@H](Cc3cccnc3)C(=O)N[C@@H]([C@@H](C)CC)C(=O)N(C)CC(=O)N(C)[C@H]3CCCCN(C3=O)[C@@H](Cc3ccc(C(F)(F)F)cc3)C(=O)N(C)CC(=O)N[C@@H](CCc3cc(F)c(C(F)(F)F)c(F)c3)C(=O)N2C1 [PP0703]			C (A compound having a KD ratio of 0.1 or more and less than 3 is denoted as C)	B (a compound having 3 or more and less than 10 is denoted as B)		
20.6	CCCN1C(=O)[C@@H]2[C@@H](C)CN2C(=O)[C@H](C)N(C)C(=O)[C@H]([C@@H](C)CC)NC(=O)[C@H](CC(C)C)N(C)C(=O)C[C@@H](C(=O)N2CCOCC2)N(C)C(=O)[C@H](C2CCCC2)N(C)C(=O)C2(CCCC2)NC(=O)[C@@H]2CCCN2C(=O)[C@H](CCc2ccc(C(F)(F)F)c(Cl)c2)NC(=O)CN(C)C(=O)[C@@H]1Cc1ccc(C)cc1 [PP0138] ([NMeL]I[NMeA][Aze(3S-Me)][NPrPhe(4-Me)][Sar][hPhe(3-Cl-4-CF3)]P[Ac5c][NMeGly(cPent)][NMeD]-Morpholide; lactam N-11)	C (A compound having a KD ratio of 0.1 or more and less than 3 is denoted as C)	C (A compound having a KD ratio of 0.1 or more and less than 3 is denoted as C)				
5.1	CCO[C@@H]1C[C@H]2C(=O)NC3(CC(C)(C)C3)C(=O)N(C)[C@@H](C3CCCC3)C(=O)N(C)[C@H](C(=O)N(C)CC)CC(=O)N(C)[C@@H](COC)C(=O)N[C@@H]([C@@H](C)CC)C(=O)N(C)CC(=O)N(C)[C@H]3C/C=C\CCN(C3=O)[C@@H](Cc3ccc(C(F)(F)F)cc3)C(=O)N(C)CC(=O)N[C@@H](CCc3ccc(C(F)(F)F)c(Cl)c3)C(=O)N2C1 [PP2836]	A (a compound having 10 or more and less than 20 is denoted as A)	A (a compound having 10 or more and less than 20 is denoted as A)				
22.9	CCO[C@@H]1C[C@H]2C(=O)NC3(CC(F)(F)C3)C(=O)N(C)[C@@H](C3CCCC3)C(=O)N(C)[C@H](CC)CC(=O)N(C)[C@@H](CC)C(=O)N[C@@H]([C@@H](C)CC)C(=O)N(C)CC(=O)N(C)[C@H]3C/C=C\CCN(C3=O)[C@@H](Cc3ccc(C(F)(F)F)cc3)C(=O)N(C)CC(=O)N[C@@H](CCc3cc(F)c(C(F)(F)F)c(F)c3)C(=O)N2C1 [PP1627]					A (a compound having 10 or more and less than 20 is denoted as A)	A (a compound having 10 or more and less than 20 is denoted as A)

Structure (SMILES)	IC50 [2] [nM]	NRAS /KRAS [1, 3]	HRAS /KRAS (HRAS wild-type protein; [4])	NRAS /KRAS [1, 5]	HRAS /KRAS (HRAS wild-type protein; [6])	NRAS /KRAS [1, 7]	HRAS /KRAS (HRAS wild-type protein; [8])
CCCN1C(=O)CN(C)C(=O)CN(C)C(=O)[C@H]([C@@H](C)CC)NC(=O)[C@H](CC(C)C)N(C)C(=O)C[C@@H](C(=O)N2C3CCC2COC3)N(C)C(=O)[C@H](C2CCCC2)N(C)C(=O)C2(CCCC2)NC(=O)[C@@H]2CCCN2C(=O)[C@H](CCc2ccc(C(F)(F)F)c(Cl)c2)NC(=O)CN(C)C(=O)[C@@H]1Cc1ccc(C(F)(F)F)cc1 [PP0173] ([NMeL]I[Sar][Sar][NPrPhe(4-CF3)][Sar][hPhe(3-Cl-4-CF3)]P[Ac5c][NMeGly(cPent)][NMeD]-{3Oxa8azabicyclo(3.2.1)octane}; lactam N-11)	11.6	B (a compound having 3 or more and less than 10 is denoted as B)	C (A compound having a KD ratio of 0.1 or more and less than 3 is denoted as C)				
